Data published in PMC10952572, “Improved PIEZO1 agonism through 4‐benzoic acid modification of Yoda1” (British Journal of Pharmacology, 2023).

Tests used:
[1] = test system: mouse portal vein; test: Wire myography, relaxation of phenylephrine pre-constricted vein
Method: Mice were anaesthetised with isoflurane (5% induction and 1.5% maintenance) in 95% O2 according to Schedule 1 procedure approved by the UK Home Office. The portal vein was quickly dissected and placed in Krebs solution. The Krebs PV solution consisted of 118 mM NaCl, 4.7 mM KCl, 2.5 mM CaCl2, 1.2 mM KH2PO4, 1.2 mM MgSO4·7H2O, 25.2 mM NaHCO3 and 11.1 mM glucose. By means of a dissecting microscope, adhering perivascular tissue was carefully removed and the vein was cut into 1 mm segments.
Vein segments were mounted onto two thin stainless steel wires in an isometric myograph (Multi Wire Myograph System 620M from Danish Myograph Technology [DMT]), for which the force transducer was calibrated once per month according to the manufacturer's instructions. The recording chamber was filled with gassed Krebs solution (95% O2/5% CO2, pH 7.4). The segments were then stretched to a normalised internal diameter according to the manufacturer's instructions. The mounted rings were kept in a 5 ml chamber containing Krebs solution at 37°C and continuously bubbled with a gas mixture of 95% O2 and 5% CO2 (pH 7.4). After an equilibration period of 60 min, the contractile function of the vessel was tested by replacing the Krebs solution by 60 mM K^+ solution. Following washout, the vein was contracted once with 10 μM phenylephrine and then Yoda1, KC159 or KC289 was applied with the concentrations of 0.1 to 10 μM. The NOS inhibitor, L‐NAME, (100 μM), was pre‐incubated for 20 min before the PIEZO1 modulator.
Because the anticipated effect of test compounds was to cause vessel relaxation, phenylephrine was applied to induce tension and the maximum value of this tension was defined as 0% relaxation (no relaxation). The value of tension immediately prior to application of phenylephrine was defined as 100% relaxation. Data are normalised to these values because, otherwise, the intrinsic variability in the absolute amount of tension induced by phenylephrine obscured exploration of the relaxant effect of compounds.
OriginPro 2020 was used for the analysis of myography data. Myography traces show readings taken every 0.5 or 1 s and were smoothed with the Savitzky–Golay filter set to 70 points. To compare the agonistic activity of Yoda1 analogues, basal vessel tension prior to compound injection was subtracted. Maximal tension in the presence of PE alone was used to define 0% relaxation. The tension value prior to PE application was defined as 100% relaxation. Following the addition of test compounds, tension readings were taken at the last time point of the treatments and expressed as percentage relaxation.

[2] = target: T1, mPIEZO1 (Mus musculus, UniProt E2JF22); test: Intracellular Ca2+ measurement (Fura-2) in mPIEZO1-TREx cells; format: cell-based; settings: for Peak ΔCa2+i (ΔF340/380), median fold difference compared to Yoda1: 10 μM compound, mPIEZO1-TREx cells, paired with 10 μM Yoda1; for Ca2+ response (agonist effect): 10 μM, cells overexpressing mPIEZO1, compared with Yoda1
T1 construct: expressed in transfected cells
T1 sequence (E2JF22 whole entry): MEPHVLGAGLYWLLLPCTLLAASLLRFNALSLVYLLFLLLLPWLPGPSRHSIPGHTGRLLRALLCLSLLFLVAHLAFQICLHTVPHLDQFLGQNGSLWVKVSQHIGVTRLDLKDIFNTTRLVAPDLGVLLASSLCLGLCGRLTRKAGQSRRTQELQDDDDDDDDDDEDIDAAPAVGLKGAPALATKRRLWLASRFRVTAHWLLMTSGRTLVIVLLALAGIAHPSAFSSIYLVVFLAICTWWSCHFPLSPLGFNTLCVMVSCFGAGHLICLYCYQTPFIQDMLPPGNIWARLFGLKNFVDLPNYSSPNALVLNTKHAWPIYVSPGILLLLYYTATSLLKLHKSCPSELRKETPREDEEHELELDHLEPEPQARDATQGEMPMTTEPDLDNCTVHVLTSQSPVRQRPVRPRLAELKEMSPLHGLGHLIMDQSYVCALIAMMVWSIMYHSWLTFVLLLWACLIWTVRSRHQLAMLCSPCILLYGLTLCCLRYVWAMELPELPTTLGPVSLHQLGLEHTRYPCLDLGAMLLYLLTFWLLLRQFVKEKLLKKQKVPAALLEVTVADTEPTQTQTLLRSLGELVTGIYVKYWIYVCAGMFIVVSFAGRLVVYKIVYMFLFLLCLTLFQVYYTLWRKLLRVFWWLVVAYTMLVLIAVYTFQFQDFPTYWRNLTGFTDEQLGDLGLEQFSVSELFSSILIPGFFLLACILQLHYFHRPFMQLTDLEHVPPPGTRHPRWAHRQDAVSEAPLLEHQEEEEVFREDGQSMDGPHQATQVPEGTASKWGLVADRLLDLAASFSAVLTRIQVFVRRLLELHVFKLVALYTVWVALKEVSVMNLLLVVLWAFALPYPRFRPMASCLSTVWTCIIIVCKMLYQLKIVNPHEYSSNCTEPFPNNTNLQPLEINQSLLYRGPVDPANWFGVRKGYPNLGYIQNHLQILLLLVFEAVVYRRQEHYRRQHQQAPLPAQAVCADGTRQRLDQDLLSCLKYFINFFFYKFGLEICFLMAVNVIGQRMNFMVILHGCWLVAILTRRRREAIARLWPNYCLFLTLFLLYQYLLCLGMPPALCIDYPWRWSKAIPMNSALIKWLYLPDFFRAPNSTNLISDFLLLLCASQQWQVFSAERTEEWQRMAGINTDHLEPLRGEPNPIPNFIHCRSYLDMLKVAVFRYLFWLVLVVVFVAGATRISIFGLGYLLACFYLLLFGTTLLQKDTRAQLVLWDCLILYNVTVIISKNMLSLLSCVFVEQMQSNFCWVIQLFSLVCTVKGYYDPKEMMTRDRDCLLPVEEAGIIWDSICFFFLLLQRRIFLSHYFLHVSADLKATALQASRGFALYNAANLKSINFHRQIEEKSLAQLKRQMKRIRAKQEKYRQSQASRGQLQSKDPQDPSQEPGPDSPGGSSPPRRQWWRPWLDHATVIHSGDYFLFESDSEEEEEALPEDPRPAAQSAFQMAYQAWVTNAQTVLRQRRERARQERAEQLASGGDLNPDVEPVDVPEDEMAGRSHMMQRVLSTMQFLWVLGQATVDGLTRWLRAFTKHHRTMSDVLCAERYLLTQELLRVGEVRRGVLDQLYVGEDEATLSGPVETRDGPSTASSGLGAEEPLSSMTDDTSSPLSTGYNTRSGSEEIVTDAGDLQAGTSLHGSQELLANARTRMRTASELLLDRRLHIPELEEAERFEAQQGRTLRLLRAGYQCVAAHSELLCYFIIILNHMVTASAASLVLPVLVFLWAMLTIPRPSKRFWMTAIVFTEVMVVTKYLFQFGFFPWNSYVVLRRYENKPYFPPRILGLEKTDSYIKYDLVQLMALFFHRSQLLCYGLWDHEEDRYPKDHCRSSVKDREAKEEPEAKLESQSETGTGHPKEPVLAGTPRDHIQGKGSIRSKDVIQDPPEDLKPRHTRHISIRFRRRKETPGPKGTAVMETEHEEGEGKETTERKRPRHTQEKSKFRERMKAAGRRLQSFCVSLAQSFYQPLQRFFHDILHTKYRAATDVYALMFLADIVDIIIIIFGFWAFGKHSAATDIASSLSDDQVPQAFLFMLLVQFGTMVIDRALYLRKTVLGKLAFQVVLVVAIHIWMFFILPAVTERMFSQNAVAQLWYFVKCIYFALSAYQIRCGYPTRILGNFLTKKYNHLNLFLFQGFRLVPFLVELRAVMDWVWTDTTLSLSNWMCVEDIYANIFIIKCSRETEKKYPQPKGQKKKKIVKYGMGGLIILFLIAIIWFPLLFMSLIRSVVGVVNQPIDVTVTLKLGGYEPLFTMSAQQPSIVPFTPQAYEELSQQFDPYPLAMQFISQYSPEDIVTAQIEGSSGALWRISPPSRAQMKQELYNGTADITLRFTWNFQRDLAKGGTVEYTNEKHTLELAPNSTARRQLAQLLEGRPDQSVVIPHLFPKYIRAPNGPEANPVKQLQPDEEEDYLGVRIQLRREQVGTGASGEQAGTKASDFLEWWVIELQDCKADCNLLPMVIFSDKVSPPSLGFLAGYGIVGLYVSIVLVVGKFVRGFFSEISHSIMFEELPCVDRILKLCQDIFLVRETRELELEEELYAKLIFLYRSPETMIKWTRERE
Description: HEK T‐REx™ cells that constitutively overexpress murine PIEZO1 were generated as previously described (Blythe et al., [2019]). pcDNA3 mouse PIEZO1 (mPIEZO1) IRES green fluorescent protein (GFP), a gift from Ardem Patapoutian (Coste et al., [2010]), was used as a template to clone the mPIEZO1 coding sequence into pcDNA4/TO. Overlapping mPIEZO1 (forward primer 5′‐[…]‐3′ and reverse primer 5′‐[…]‐3′) and pcDNA4/TO (forward primer 5′‐[…]‐3′ and reverse primer 5′‐[…]‐3′) PCR products were assembled using Gibson Assembly (New England Biolabs). […] HEK T‐REx™ 293 cells were transfected with pcDNA4/TO‐mPIEZO1 using Lipofectamine 2000 (Invitrogen) and treated with 200 μg·ml^−1 zeocin to select stably transfected cells. Individual clones were isolated and analysed for expression using Yoda1 and intracellular Ca^2+ measurements. These cells are referred to as mPIEZO1‐TREx.
(§1) HEK 293‐TREx cells and their stably transfected derivatives or transiently transfected HEK 293 or HeLa cells were seeded at a density of 7.5 × 10^4 cells per well into poly‐D‐lysine‐coated 96‐well plates. The plates were either commercially pre‐coated with poly‐D‐lysine (Greiner Bio‐One #655946) or (Greiner Bio‐One #655090) were coated in‐house with 35 μl of a 10 μg·ml^−1 poly‐D‐lysine (Bio‐Techne, Cultrex # 3439‐100‐01) in sterile deionised water per well for at least 24 h and rinsed three times with 100 μl per well sterile D‐PBS before addition of cells. HUVECs were seeded into tissue culture‐treated 96‐well plates (Greiner Bio‐One #655090) at a density of either 2.5 × 10^4 cells 24 h before experimentation or 1.25 × 10^4 cells 48 h before experimentation. Cells were incubated with 2 μM Fura‐2‐AM (Molecular Probes™) in the presence of 0.01% (wt./vol.) pluronic F127 (Sigma‐Aldrich #P2443) in standard bath solution (SBS) for 1 h at 37°C. Cells were washed with SBS for 30 min at room temperature. Alternatively, if inhibitors were being tested, these were added at this time, immediately following a wash in SBS. (−)‐Englerin A (Akbulut et al., [2015]) was used in SBS containing 0.01% pluronic acid as a dispersing agent to minimise aggregation of compound. Unless otherwise stated, the final concentration of DMSO was 0.2% (vol./vol). Working 2000× stock solutions of test compounds were freshly made in DMSO and diluted 1000‐fold in SBS during the 30 min SBS wash/inhibitor pre‐incubation period to obtain 2× solutions for injection. When testing the highest concentration of Yoda1, KC159 and KC289 (30 μM), the final DMSO concentration was 0.6% (vol./vol.). Measurements were made at room temperature on a 96‐well fluorescence plate reader (FlexStation 3, Molecular Devices, Sunnyvale, CA, USA) controlled by SoftMax Pro software v7.0.3. Recipient wells containing 80 μl SBS/0.2% (vol./vol.) DMSO vehicle or inhibitor compound received 80 μl 2× compound at an injection rate of 1 μl·s^−1, and the pipette introduced liquids from a height setting of 70 μl. No trituration was performed. For recordings using Fura‐2, the change in intracellular Ca was indicated as the ratio of Fura‐2 emission (510 nm) intensities at 340 and 380 nm excitation. Photomultipliers were set to medium sensitivity. SBS contained 130 mM NaCl, 5 mM KCl, 8 mM D‐glucose, 10 mM HEPES, 1.2 mM MgCl2 and 1.5 mM CaCl2, and the pH was adjusted to 7.4 with NaOH. The solution was filtered through a 0.2 μm bottle‐top filter prior to use and handled aseptically thereafter.
For intracellular Ca^2+ (Ca^2+i) measurements, technical intra‐experiment replicates were used to improve confidence in the data. Analysis of individual experiments was performed to obtain mean ± SEM values. For collated analysis of independent experiments, where normal distributions were not evidenced by Shapiro–Wilk normality tests, non‐parametric distributions were assumed, and therefore, median values were used. […]

[3] = target: T2, hPIEZO1 (Homo sapiens, UniProt Q92508); test: Pre-treatment with analogue before Yoda1 stimulus, Ca2+ assay in hPIEZO1-TREx cells; format: cell-based; settings: for 2 μM Yoda1-evoked peak ΔCa2+i (ΔF340/380), median fold difference compared to DMSO pretreatment: hPIEZO1-TREx, 10 μM compound 30 min pretreatment before 2 μM Yoda1; for Inhibition of the action of Yoda1: hPIEZO1 channels, 10 μM for 30 min prior to Yoda1
T2 construct: expressed in transfected cells
T2 sequence (Q92508 whole entry): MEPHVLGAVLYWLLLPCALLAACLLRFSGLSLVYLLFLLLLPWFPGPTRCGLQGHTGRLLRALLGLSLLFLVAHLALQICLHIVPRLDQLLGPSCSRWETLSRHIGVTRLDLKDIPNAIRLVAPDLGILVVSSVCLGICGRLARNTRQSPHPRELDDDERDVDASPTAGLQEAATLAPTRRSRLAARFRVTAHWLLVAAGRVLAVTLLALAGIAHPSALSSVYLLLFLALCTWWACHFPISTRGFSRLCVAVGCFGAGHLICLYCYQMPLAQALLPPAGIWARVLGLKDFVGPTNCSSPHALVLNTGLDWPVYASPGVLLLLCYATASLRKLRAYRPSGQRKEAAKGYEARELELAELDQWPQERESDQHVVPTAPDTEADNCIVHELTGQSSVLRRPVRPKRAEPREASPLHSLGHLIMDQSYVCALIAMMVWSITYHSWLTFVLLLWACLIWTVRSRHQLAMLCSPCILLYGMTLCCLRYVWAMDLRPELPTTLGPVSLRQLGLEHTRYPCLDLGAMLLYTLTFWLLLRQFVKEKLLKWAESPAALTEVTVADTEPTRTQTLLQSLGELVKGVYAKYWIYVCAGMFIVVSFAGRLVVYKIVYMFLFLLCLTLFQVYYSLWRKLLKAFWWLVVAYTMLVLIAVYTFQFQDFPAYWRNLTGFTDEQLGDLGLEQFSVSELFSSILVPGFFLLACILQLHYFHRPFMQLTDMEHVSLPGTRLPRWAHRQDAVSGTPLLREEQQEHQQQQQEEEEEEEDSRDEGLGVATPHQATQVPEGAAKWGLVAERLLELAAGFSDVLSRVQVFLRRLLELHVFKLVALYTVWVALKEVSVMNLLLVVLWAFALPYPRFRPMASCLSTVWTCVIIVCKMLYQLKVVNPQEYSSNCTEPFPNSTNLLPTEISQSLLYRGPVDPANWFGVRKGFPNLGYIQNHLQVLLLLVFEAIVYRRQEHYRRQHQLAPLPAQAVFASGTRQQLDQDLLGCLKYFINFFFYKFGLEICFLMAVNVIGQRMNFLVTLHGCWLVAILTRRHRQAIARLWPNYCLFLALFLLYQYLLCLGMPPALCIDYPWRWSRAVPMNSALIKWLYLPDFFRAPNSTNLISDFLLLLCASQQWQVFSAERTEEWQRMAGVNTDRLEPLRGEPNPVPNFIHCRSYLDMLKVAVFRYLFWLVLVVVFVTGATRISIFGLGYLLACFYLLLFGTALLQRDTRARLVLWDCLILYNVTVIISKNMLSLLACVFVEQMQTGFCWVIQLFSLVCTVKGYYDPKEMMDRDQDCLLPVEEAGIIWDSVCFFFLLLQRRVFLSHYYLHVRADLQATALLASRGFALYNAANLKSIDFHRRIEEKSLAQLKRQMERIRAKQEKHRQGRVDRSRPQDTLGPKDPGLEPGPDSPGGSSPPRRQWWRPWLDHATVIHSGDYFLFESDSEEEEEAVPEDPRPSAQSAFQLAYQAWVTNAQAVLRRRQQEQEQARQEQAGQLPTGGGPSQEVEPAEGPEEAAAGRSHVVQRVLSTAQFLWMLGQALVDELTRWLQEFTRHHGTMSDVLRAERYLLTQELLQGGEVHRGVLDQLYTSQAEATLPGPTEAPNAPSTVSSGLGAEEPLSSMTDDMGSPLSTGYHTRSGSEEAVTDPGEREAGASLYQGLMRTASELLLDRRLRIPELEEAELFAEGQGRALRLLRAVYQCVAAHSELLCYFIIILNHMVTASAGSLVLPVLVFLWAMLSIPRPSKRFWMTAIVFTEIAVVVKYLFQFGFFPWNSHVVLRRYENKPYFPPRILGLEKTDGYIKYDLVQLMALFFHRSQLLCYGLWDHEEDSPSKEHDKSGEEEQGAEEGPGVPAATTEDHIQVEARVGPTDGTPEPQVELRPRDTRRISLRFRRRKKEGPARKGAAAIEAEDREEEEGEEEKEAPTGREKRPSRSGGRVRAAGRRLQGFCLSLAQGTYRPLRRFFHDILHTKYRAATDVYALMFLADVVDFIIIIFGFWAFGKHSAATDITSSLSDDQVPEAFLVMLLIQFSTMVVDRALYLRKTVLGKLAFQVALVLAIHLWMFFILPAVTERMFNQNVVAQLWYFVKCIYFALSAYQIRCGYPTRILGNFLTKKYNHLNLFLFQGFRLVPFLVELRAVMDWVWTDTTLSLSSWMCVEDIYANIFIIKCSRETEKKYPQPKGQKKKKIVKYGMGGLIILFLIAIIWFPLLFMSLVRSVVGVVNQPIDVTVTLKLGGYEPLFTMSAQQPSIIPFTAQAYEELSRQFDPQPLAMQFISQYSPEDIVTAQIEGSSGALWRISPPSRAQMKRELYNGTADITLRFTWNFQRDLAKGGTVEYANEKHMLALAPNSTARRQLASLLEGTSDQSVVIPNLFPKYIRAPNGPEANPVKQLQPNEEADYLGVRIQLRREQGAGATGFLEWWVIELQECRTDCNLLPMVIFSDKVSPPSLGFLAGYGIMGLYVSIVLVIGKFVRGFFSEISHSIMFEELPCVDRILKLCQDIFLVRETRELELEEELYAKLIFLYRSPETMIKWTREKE
Method: as §1
In view of the effect of Dooku1 described above, we tested if there are inhibitory actions of the new Yoda1 analogues by pre‐treating cells at 10 μM for 30 min prior to adding 2 μM Yoda1 (Figures 9 and S9, SI 1). All except KC157 and KC161 inhibited the action of Yoda1 on hPIEZO1 channels (Figures 9a and S9, SI 1). […] KC159 and KC289 were agonists, and so they may inhibit the effect of Yoda1 simply by pre‐activating the channels. KC158, KC161 and KC162 are also agonists of mPIEZO1 channels (Figure 3). […] Only the 2‐benzoic acid analogue (KC157) lacks agonist or antagonist properties.

[4] = target: T1, mPIEZO1; test: Pre-treatment with analogue before Yoda1 stimulus, Ca2+ assay in mPIEZO1-TREx cells; format: cell-based; settings: mPIEZO1-TREx, 10 μM compound 30 min pretreatment before 0.5 μM Yoda1
[5] = target: T2, hPIEZO1; test: Intracellular Ca2+ measurement (Fura-2) in hPIEZO1-TREx cells; format: cell-based; settings: 10 μM compound, hPIEZO1-TREx cells, paired with 10 μM Yoda1
Description: HEK T‐REx™ 293 cells (Thermo Fisher Cat #R71007, RRID:CVCL_D585) that overexpress hPIEZO1 upon induction with tetracycline were generated as previously described (Rode et al., [2017]). PIEZO1‐GFP was used as a PCR template to clone hPIEZO1 coding sequence into pcDNA™4/TO between HindIII and EcoRI restriction sites. PIEZO1 was amplified as two fragments using the following primers: (HindIII‐PIEZO1‐Fw: […] and BamHI‐Int.PIEZO1‐Rv: […]) and (BamHI‐Int. PIEZO1‐Fw: […] and EcoRI‐PIEZO1‐Rv: […]). The two fragments were fused using BamHI restriction site, resulting in the full‐length PIEZO1 coding sequence with the c4182a silent mutation. HEK T‐REx™ 293 cells (Invitrogen) were transfected with pcDNA4/TO‐PIEZO1 using Lipofectamine 2000 (Thermo Fisher Scientific). Subsequently, cells were treated with 10 μg·ml^−1 blasticidin and 200 μg·ml^−1 zeocin (InvivoGen) to select stably transfected cells. Single‐cell clones were isolated and analysed individually. Expression was induced by treating the cells for 24 h with 10 ng·ml^−1 tetracycline and analysed by quantitative RT‐PCR and Western blot. These cells are referred to as hPIEZO1‐TREx.
as §1
For intracellular Ca^2+ (Ca^2+i) measurements, technical intra‐experiment replicates were used to improve confidence in the data. Analysis of individual experiments was performed to obtain mean ± SEM values. […]

SMILES	Effect on responses to phenylephrine ([1]; 10 μM Dooku1)	Effect of pre-incubation on relaxations evoked by PIEZO1 agonists ([1]; 10 μM Dooku1 pre-incubation, 30 min)	Peak ΔCa2+i (ΔF340/380), median fold difference compared to Yoda1 [2] [fold]	Ca2+ response (agonist effect) [2]	2 μM Yoda1-evoked peak ΔCa2+i (ΔF340/380), median fold difference compared to DMSO pretreatment [3] [fold]	Inhibition of the action of Yoda1 [3]	0.5 μM Yoda1-evoked peak ΔCa2+i (ΔF340/380), median fold difference compared to DMSO pretreatment [4] [fold]	Peak ΔCa2+i (ΔF340/380), median fold difference compared to Yoda1 [5] [fold]
Clc1cccc(Cl)c1CSc1nnc(-c2ccc[nH]2)o1 [Dooku1, reference compound]	consistently inhibited responses to phenylephrine	reduces relaxations evoked by KC159 and KC289						
O=C(O)c1cccc(-c2nnc(SCc3c(Cl)cccc3Cl)s2)c1 [KC158]			−2.0	agonist effects	−3.8	inhibit the Yoda1 response	−4.9	−11.7
NC(=O)c1ccc(-c2nnc(SCc3c(Cl)cccc3Cl)s2)cc1 [KC161]			−3.8	agonist effects			−6.5	−23.6
NC(=O)c1cccc(-c2nnc(SCc3c(Cl)cccc3Cl)s2)c1 [KC162]			−3.7	agonist effects	−2.5	inhibit the Yoda1 response	−8.2	−3.7
